# Laboratory results published in the SangsterLogP compilation.
# Where a SMILES comes first, the peptide text is derived from it. The star is where a group is joined. X1 = O=C(CCCCSc1ncnc2nc[nH]c12)*
# Assay: from Bachrata, M.; Bezakova, Z.; Pesák, M.; Blesova, M. (1983). Study of physicochemical properties of substances with cancerostatic effect. II. Study of lipo-hydrophilic parameters. Acta Fac. Pharm. …
# Conditions: pH 7.0
row,logD,SMILES
1,-0.23,CCOC(=O)CNC(=O)CNC(=O)CNC(=O)CNC(=O)CCCCSc1ncnc2nc[nH]c12 (X1-GGGG-OEt)
2,-0.21,c1ncc2[nH]cnc2n1
3,1.51,CCOC(=O)C(C)NC(=O)CCCCSc1ncnc2nc[nH]c12 (configuration not stated)
4,1.39,CCCCOC(=O)CNC(=O)CCCCSc1ncnc2nc[nH]c12
5,1.33,CCOC(=O)C[C@H](NC(=O)CCCCSc1ncnc2nc[nH]c12)C(=O)OCC
6,1.07,CCOC(=O)[C@H](CC(C)C)NC(=O)CNC(=O)CNC(=O)CCCCSc1ncnc2nc[nH]c12
7,0.5,CCOC(=O)CNC(=O)CNC(=O)CCCCSc1ncnc2nc[nH]c12
8,0.91,CCOC(=O)CNC(=O)CCCCSc1ncnc2nc[nH]c12
9,1.13,CCOC(=O)C(NC(=O)CCCCSc1ncnc2nc[nH]c12)c1ccccc1 (configuration not stated)
10,1.89,CCOC(=O)C(NC(=O)CCCCSc1ncnc2[nH]cnc12)C(C)C (racemic)
11,1.37,CCCOC(=O)CNC(=O)CCCCSc1ncnc2nc[nH]c12

row,SMILES,logD
1,CCOC(=O)CNC(=O)CNC(=O)CNC(=O)CCCCSc1ncnc2nc[nH]c12,0.21
